Assay results from PubChem BioAssay (NCI).
Where “and” joins values, the source holds several entries; their conditions need not be identical. Equal values may be shown once.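 Protocol summary: plate cells (96-well), add compound at 5 concentrations, incubate 48 h, interpolate endpoints linearly. Here, GI50 denotes the concentration required for 50% inhibition of growth. TGI: total growth inhibition.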

Columns and labels:
Assay in all cases: inhibition of tumour cell growth, NCI panel, 48 h
T-47D breast = test system: T-47D breast
HCC-2998 colon = test system: HCC-2998 colon
SR leukemia = test system: SR leukemia
U251 CNS = test system: U251 CNS
SF-295 CNS = test system: SF-295 CNS
DU-145 prostate = test system: DU-145 prostate
IGROV1 ovarian = test system: IGROV1 ovarian
SNB-19 CNS = test system: SNB-19 CNS
MDA-MB-468 breast = test system: MDA-MB-468 breast
PC-3 prostate = test system: PC-3 prostate
HOP-62 NSCLC = test system: HOP-62 NSCLC
COLO 205 colon = test system: COLO 205 colon
SN12C renal = test system: SN12C renal
UACC-257 melanoma = test system: UACC-257 melanoma
HCT-15 colon = test system: HCT-15 colon
CCRF-CEM leukemia = test system: CCRF-CEM leukemia
NCI-H23 lung = test system: NCI-H23 lung
HCT-116 colon = test system: HCT-116 colon
A498 renal = test system: A498 renal
EKVX NSCLC = test system: EKVX NSCLC
A549 NSCLC = test system: A549 NSCLC
786-0 renal = test system: 786-0 renal
LOX IMVI melanoma = test system: LOX IMVI melanoma
RXF 393 renal = test system: RXF 393 renal
TK-10 renal = test system: TK-10 renal
RPMI-8226 leukemia = test system: RPMI-8226 leukemia
ACHN renal = test system: ACHN renal
K-562 leukemia = test system: K-562 leukemia
OVCAR-8 ovarian = test system: OVCAR-8 ovarian

SMILES: CC(C)C[C@H](NC(=O)[C@@H]1CCCCCCCCCCC(=O)N[C@@H](CC(=O)N2CCC[C@@H]2C2CCCC2)C(=O)N1)B(O)O
- TGI (T-47D breast): 0.00529 µM
- GI50 (HCC-2998 colon): 0.00183 µM
- TGI (HCC-2998 colon): 0.00332 µM
- GI50 (SR leukemia): 0.00381 µM
- TGI (SR leukemia): > 100 µM
- GI50 (U251 CNS): 0.00392 µM
- TGI (U251 CNS): 0.0178 µM and 0.0729 µM
- GI50 (SF-295 CNS): 0.00383 µM
- TGI (SF-295 CNS): 0.0145 µM
- GI50 (DU-145 prostate): 0.00846 µM
- TGI (DU-145 prostate): 37 µM
- GI50 (IGROV1 ovarian): 0.00408 µM
- GI50 (SNB-19 CNS): 0.00367 µM
- GI50 (MDA-MB-468 breast): 0.00202 µM
- TGI (MDA-MB-468 breast): 0.0044 µM
- GI50 (PC-3 prostate): 0.00461 µM
- TGI (PC-3 prostate): 0.0964 µM and 0.0593 µM
- GI50 (HOP-62 NSCLC): 0.00568 µM
- TGI (HOP-62 NSCLC): 0.023 µM
- GI50 (COLO 205 colon): 0.0045 µM
- TGI (COLO 205 colon): 0.0202 µM and 0.018 µM
- GI50 (SN12C renal): 0.00215 µM
- TGI (SN12C renal): 0.00504 µM and 0.0113 µM
- GI50 (UACC-257 melanoma): 0.00376 µM
- TGI (UACC-257 melanoma): 0.289 µM and 1.2 µM
- GI50 (HCT-15 colon): 0.119 µM and 0.224 µM
- TGI (HCT-15 colon): 0.356 µM and 2.46 µM
- GI50 (CCRF-CEM leukemia): 0.00287 µM
- GI50 (NCI-H23 lung): 0.00215 µM
- TGI (NCI-H23 lung): 0.00511 µM
- GI50 (HCT-116 colon): 0.0026 µM
- GI50 (A498 renal): 0.0216 µM and 0.0344 µM
- TGI (A498 renal): 0.0982 µM and 0.18 µM
- GI50 (EKVX NSCLC): 0.00925 µM and 0.0217 µM
- GI50 (A549 NSCLC): 0.00711 µM
- TGI (A549 NSCLC): 4.57 µM
- GI50 (786-0 renal): 0.0249 µM and 0.0218 µM
- TGI (786-0 renal): 0.173 µM and 0.168 µM
- GI50 (LOX IMVI melanoma): 0.00175 µM
- TGI (LOX IMVI melanoma): 0.00346 µM
- GI50 (RXF 393 renal): 0.00253 µM
- TGI (RXF 393 renal): 0.00628 µM
- GI50 (TK-10 renal): 0.041 µM and 0.0373 µM
- TGI (TK-10 renal): 0.208 µM and 0.462 µM
- GI50 (RPMI-8226 leukemia): 0.00372 µM
- GI50 (ACHN renal): 0.0585 µM and 0.0259 µM
- TGI (ACHN renal): 5.94 µM
- GI50 (K-562 leukemia): 0.00456 µM
- TGI (K-562 leukemia): > 100 µM
- GI50 (OVCAR-8 ovarian): 0.0222 µM and 0.0157 µM
- TGI (OVCAR-8 ovarian): 10.2 µM
